Assay results: ChEMBL document CHEMBL3352549, “Discovery, biological evaluation, and crystal structure of a novel nanomolar selective butyrylcholinesterase inhibitor” (J Med Chem, 2014); call rule not given here

Assays:
Cholinesterase [1] = molecular target: T1, Cholinesterase (Homo sapiens, UniProt P06276); assay: Inhibition of recombinant human BChE at 10 uM by Ellman method
[2] = Cytotoxicity against human SH-SY5Y cells assessed as reduction in cell viability at 10 uM after 48 hrs by MTS assay; type: cell-based
[3] = molecular target: Cholinesterase (Mus musculus) (UniProt Q03311); assay: Inhibition of recombinant mouse BChE at 10 uM by Ellman method
Sequence of Cholinesterase (Mus musculus) (Q03311 whole entry): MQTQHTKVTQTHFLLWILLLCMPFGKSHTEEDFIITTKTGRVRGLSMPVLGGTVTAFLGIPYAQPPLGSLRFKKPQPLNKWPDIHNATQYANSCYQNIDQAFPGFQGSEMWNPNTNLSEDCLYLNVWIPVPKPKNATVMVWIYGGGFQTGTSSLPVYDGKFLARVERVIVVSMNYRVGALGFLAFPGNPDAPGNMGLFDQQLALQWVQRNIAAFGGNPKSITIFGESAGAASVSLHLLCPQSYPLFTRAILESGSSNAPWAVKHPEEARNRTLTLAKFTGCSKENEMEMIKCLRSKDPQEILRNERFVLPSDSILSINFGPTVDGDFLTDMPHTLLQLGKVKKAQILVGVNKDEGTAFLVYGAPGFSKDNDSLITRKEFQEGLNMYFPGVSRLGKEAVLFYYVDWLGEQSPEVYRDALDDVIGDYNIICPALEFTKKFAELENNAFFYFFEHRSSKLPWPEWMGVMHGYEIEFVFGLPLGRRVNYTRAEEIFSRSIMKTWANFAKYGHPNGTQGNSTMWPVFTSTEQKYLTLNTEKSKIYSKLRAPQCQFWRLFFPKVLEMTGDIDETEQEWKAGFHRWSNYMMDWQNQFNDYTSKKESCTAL

SH-SY5Y [4] = assay: Neuroprotective activity in human SH-SY5Y cells assessed as inhibition of amyloid beta(1-42)-induced neurotoxicity at 0.1 to 10 uM incubated for 48 hrs by MTS assay; type: functional, cell-based
SH-SY5Y [5] = assay: Neuroprotective activity in human SH-SY5Y cells assessed as inhibition of amyloid beta(1-42)-induced neurotoxicity at 0.1 to 10 uM incubated for 48 hrs by LDH release assay; type: functional, cell-based
Cholinesterase [6] = molecular target: T1, Cholinesterase; assay: Inhibition of recombinant human BChE at 50 nM by stopped flow apparatus method
Cholinesterase [7] = molecular target: T1, Cholinesterase
Description: Inhibition of recombinant human BChE by Ellman method

Acetylcholinesterase = molecular target: T2, Acetylcholinesterase (Mus musculus, UniProt P21836); assay: Inhibition of recombinant mouse AChE by Ellman method
T2 sequence (P21836 whole entry): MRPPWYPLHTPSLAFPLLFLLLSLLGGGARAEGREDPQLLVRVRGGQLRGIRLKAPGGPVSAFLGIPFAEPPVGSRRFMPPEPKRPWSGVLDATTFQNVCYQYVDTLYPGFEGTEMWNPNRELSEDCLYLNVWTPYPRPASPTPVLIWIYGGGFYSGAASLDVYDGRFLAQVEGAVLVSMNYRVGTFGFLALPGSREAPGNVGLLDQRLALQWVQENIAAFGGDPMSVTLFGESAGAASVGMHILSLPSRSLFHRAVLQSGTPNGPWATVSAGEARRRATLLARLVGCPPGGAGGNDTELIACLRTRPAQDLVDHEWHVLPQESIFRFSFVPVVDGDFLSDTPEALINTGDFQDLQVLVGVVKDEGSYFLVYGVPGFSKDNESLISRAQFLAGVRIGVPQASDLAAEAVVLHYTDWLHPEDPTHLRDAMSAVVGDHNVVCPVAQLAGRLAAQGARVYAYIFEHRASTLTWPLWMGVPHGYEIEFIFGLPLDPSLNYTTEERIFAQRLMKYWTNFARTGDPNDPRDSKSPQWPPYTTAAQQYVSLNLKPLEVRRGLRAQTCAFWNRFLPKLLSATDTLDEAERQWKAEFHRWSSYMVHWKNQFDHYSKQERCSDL

[8] = molecular target: T3, Acetylcholinesterase (Mus musculus) (UniProt P21836); assay: Inhibition of recombinant mouse AChE assessed as residual activity at 10 uM by Ellman method
T3 sequence (whole entry): T2 sequence (P21836 whole entry)

T1 sequence (P06276 whole entry): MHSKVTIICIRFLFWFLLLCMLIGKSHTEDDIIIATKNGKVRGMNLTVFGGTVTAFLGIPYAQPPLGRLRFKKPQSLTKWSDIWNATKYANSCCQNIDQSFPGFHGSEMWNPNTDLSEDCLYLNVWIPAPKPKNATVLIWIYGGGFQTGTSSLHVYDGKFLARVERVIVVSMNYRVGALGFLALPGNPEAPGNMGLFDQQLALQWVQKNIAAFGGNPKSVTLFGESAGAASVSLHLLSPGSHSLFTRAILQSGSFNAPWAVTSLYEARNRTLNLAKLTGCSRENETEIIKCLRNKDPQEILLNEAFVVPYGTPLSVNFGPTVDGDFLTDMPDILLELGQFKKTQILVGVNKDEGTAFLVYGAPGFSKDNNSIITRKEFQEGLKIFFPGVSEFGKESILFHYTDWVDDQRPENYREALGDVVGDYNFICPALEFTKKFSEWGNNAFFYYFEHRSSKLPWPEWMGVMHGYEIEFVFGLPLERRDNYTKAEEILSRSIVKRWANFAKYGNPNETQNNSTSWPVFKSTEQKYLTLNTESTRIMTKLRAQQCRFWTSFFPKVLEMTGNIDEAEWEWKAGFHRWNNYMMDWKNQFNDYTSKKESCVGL

SMILES	inhibition (Cholinesterase [1]) [%]	Activity [2]	inhibition [3] [%]	Activity (SH-SY5Y [4])	Activity (SH-SY5Y [5])	Ki (Cholinesterase [6]) [µM]	IC50 (Cholinesterase [7]) [µM]	IC50 (Acetylcholinesterase; read-out: IC50) [µM]	Activity [8] [%]	IC50 (Acetylcholinesterase)
COCCN(CC1CCCN(C2Cc3ccccc3C2)C1)C(=O)c1ccc2ccccc2c1 (racemic)	> 50	Non-toxic	> 50	Dose-dependent effect	Dose-dependent effect	–	–	–	–	–
COCCN(C[C@H]1CCCN(C2Cc3ccccc3C2)C1)C(=O)c1ccc2ccccc2c1	–	–	–	–	–	0.027	0.166	110	–	–
CC(c1nc2ccccc2s1)N(C)C(=O)CN1CCCC1c1ccc2c(c1)OCCCO2 (centres undefined)	> 50	–	> 50	–	–	–	1.36	–	94	–
CCn1nc(C(=O)N2CCCC2)c2c1CCC(NCCc1nc(-c3ccccc3)cs1)C2 (centres undefined)	> 50	–	> 50	–	–	–	2.15	–	–	Not Active
COCCN(C[C@@H]1CCCN(C2Cc3ccccc3C2)C1)C(=O)c1ccc2ccccc2c1	–	–	–	–	–	0.00271	0.013	101	–	–
